Counter-ions that a name gives are not always drawn.
Legend:
Assay type in all cases: in vivo
[1] = test system: ventricular arrhythmia produced by chloroform; assay: Antiarrhythmic activity: protection from chloroform-induced ventricular arrhythmia in mice (Lawson model); details: mouse; for ED50: ip, 10 min, i.p., 10 min before chloroform, 95% confidence limits in parentheses, read-out: ED50 (95% C.L.); for mice protected of 5 / Antiarrhythmic activity, ED50 symbol (failed screening dose): 31 mg/kg i.p.; for Antiarrhythmic activity, ED50 symbol (failed screening dose): groups of 5 mice
Procedure: The antiarrhythmic activity of the compounds of this invention was determined in the experimental model described by J. W. Lawson (J. Pharmacol. Exper. Therap. 160:22-31, 1968). Test compounds were administered to groups of 5 mice at an intraperitoneal dose of 31 mg/kg. Ten minutes after injection each mouse was placed in a covered 300 ml glass beaker which contained cotton saturated with chloroform. The animal was observed closely and removed from the beaker immediately after respiratory arrest. The heart was quickly exposed by making an incision through the abdomen, diaphragm, thorax and pericardium for visual inspection of ventricular rate and rhythm. Ventricular contractions were counted for 30 seconds and animals with a rate not exceeding 100 beats per 30 seconds were considered protected from the ventricular arrhythmia produced by chloroform. Compounds protecting at least 3 of the 5 mice were subsequently tested at various doses and the results obtained were used to calculate the mean effective doses (ED50) and 95% confidence limits after the method of Litchfield and Wilcoxon (J. Pharmacol. Exper. Therap. 96:99-113, 1949). Table A presents the results obtained in the antiarrhythmic study.

[2] = test system: Systolic Blood Pressure; assay: Antihypertensive activity: indirect systolic blood pressure in renal hypertensive rats; details: rat, 31 mg/kg p.o., * in table = statistically significant change from control
Procedure: Rats were made hypertensive by applying a figure of eight ligature to one kidney and removing the contralateral kidney two weeks later. At least four weeks after the second operation the animals were subjected to indirect systolic blood pressure measurements with an occluding cuff and pulse sensor system applied to the tail. Pressure measurements were made before and 1,2,4,6 and 8 hours after oral administration of the test compounds at a dose of 31 mg/kg. Each compound was tested in 5 or 10 rats. Statistical significance of differences between control and post treatment values was determined by Wilcoxon's signed rank test (F. Wilcoxon and R. A. Wilcox, Some Rapid Approximate Statistical Procedures, Lederle Laboratories, Pearl River, 1964).

[3] = test system: dog heart in situ; assay: Antianginal activity: aortic-coronary sinus difference in oxygen (myocardial oxygen consumption) in anesthetized dogs; details: 1 mg/kg i.v.; for antianginal activity (conclusion in words): based upon comparison with nitroglycerin, named compounds 'particularly'
Procedure: Angina pectoris is a clinical condition of hypoxia that results from an imbalance in myocardial oxygen supply and demand. A drug reducing oxygen demand is useful in the treatment of angina pectoris, as has been the case with nitroglycerin and the beta-adrenergic blocking agents like propranolol (J. R. Paratt, Advan. Drug Res. 9:103-134, 1974). Accordingly,the antianginal activity of 2-substituted indoloquinolizines was evaluated by assessing their capacity to reduce oxygen consumption by the dog heart in situ. This method allows measurement of the difference in oxygen content of the arterial and venous blood.
Mongrel dogs were anesthetized with pentobarbital and cannulas inserted in the trachea and in a femoral vein for artificial respiration with room air and for injection of test compounds, respectively. Heparin was administered intravenously to prevent blood clotting. The chest was opened at the sternal midline and an additional cannula introduced in the coronary sinus. Samples of blood were obtained from the coronary sinus cannula and from the thoracic aorta by direct puncture of the vessel. Partial pressure of oxygen in the samples was determined with a blood gas analyzer. Test compounds were injected intravenously at a dose of 1 mg/kg; oxygen measurements were made before administration and at 1, 5, 10, 20, 30, 40, 50 and 60 min after administration. One animal was used per test compound. As the standard of comparison, nitroglycerin was administered to a test animal and measurements were made in a similar manner.
Differences between partial pressure values in arterial and venous blood samples were calculated for each measurement. Since coronary sinus blood is representative of the venous effluent from the heart, these differences reflect the consumption of oxygen by the myocardium. Thus, the decrease in arteriovenous oxygen difference produced by the compounds by this invention indicates a reduction in myocardial oxygen consumption.

SMILES | ED50 [1] | mice protected of 5 [1] | Change in Systolic Blood Pressure at 1 hr [2] | Change in Systolic Blood Pressure at 2 hr [2] | Change in Systolic Blood Pressure at 4 hr [2] | Change in Systolic Blood Pressure at 6 hr [2] | Change in Systolic Blood Pressure at 8 hr [2] | Arterio-Venous Difference in Oxygen Partial Pressure at 1 min [3] | Arterio-Venous Difference in Oxygen Partial Pressure at 5 min [3] | Arterio-Venous Difference in Oxygen Partial Pressure at 10 min [3] | Arterio-Venous Difference in Oxygen Partial Pressure at 20 min [3] | Arterio-Venous Difference in Oxygen Partial Pressure at 30 min [3] | Arterio-Venous Difference in Oxygen Partial Pressure at 40 min [3] | Arterio-Venous Difference in Oxygen Partial Pressure at 50 min [3] | Arterio-Venous Difference in Oxygen Partial Pressure at 60 min [3] | antianginal activity (conclusion in words) [3] | Antiarrhythmic activity, ED50 symbol (failed screening dose) [1]
Brc1ccc(NC2CCN3CCc4c(n(Cc5ccccc5)c5ccccc45)C3C2)cc1.Cl.Cl (stereo not shown) [TR3631, 12-benzyl-2-(4-bromoanilino)-1,2,3,4,6,7,12,12b-octahydroindolo[2,3-a]quinolizine dihydrochloride] | 37 mg/kg | at least 3 of 5 mice | +10 mmHg | -5 mmHg | +12 mmHg | +3 mmHg | 0 mmHg | 26 mmHg | 33 mmHg | 32 mmHg | 30 mmHg | 30 mmHg | 32 mmHg | 31 mmHg | 31 mmHg | antianginal activity is seen | 
O=[N+]([O-])c1cccc(NC2CCN3CCc4c(n(Cc5ccccc5)c5ccccc45)C3C2)c1 (stereo not shown) [TR2998, 12-benzyl-2-(3-nitroanilino)-1,2,3,4,6,7,12,12b-octahydroindolo[2,3-a]quinolizine] | 12 mg/kg | at least 3 of 5 mice | 0 mmHg | -2 mmHg | -4 mmHg | 0 mmHg | -4 mmHg | 12 mmHg | 16 mmHg | 18 mmHg | 17 mmHg | 18 mmHg | 17 mmHg | 19 mmHg | 20 mmHg | antianginal activity is seen | 
CC(=O)Nc1cccc(NC2CCN3CCc4c(n(Cc5ccccc5)c5ccccc45)C3C2)c1.O=C(O)C(=O)O (stereo not shown) [TR3716, 2-(3-acetamidoanilino)-12-benzyl-1,2,3,4,6,7,12,12b-octahydroindolo[2,3-a]quinolizine oxalate] |  |  | -49 mmHg | -42 mmHg |  | -17 mmHg | -6 mmHg | 22 mmHg | 27 mmHg | 29 mmHg | 28 mmHg | 27 mmHg | 28 mmHg | 28 mmHg | 28 mmHg |  | * (Did not protect 3 of 5 mice and thus was not tested further.)
Cc1cccc(NC2CCN3CCc4c(n(Cc5ccccc5)c5ccccc45)C3C2)c1.Cl.Cl (stereo not shown) [TR3008, 12-benzyl-2-(3-methylanilino)-1,2,3,4,6,7,12,12b-octahydroindolo[2,3-a]quinolizine dihydrochloride] |  |  | -27 mmHg | -24 mmHg | -17 mmHg | -17 mmHg | -20 mmHg | 20 mmHg | 23 mmHg | 22 mmHg | 23 mmHg | 25 mmHg | 25 mmHg | 24 mmHg | 25 mmHg |  | * (Did not protect 3 of 5 mice and thus was not tested further.)
FC(F)(F)c1cccc(NC2CCN3CCc4c(n(Cc5ccccc5)c5ccccc45)C3C2)c1 (stereo not shown) [TR3633, 12-benzyl-1,2,3,4,6,7,12,12b-octahydroindolo-2-(3-trifluoromethylanilino)[2,3-a]quinolizine dihydrochloride] |  |  | -10 mmHg | +2 mmHg | +8 mmHg | +4 mmHg | +13 mmHg | 31 mmHg | 35 mmHg | 39 mmHg | 39 mmHg | 36 mmHg | 36 mmHg | 36 mmHg | 38 mmHg | antianginal activity is seen | * (Did not protect 3 of 5 mice and thus was not tested further.)
NS(=O)(=O)c1ccc(NC2CCN3CCc4c(n(Cc5ccccc5)c5ccccc45)C3C2)cc1 (stereo not shown) [TR3718, 12-benzyl-1,2,3,4,6,7,12,12b-octahydro-(4-sulfonamidoanilino)-indolo[2,3-a]quinolizine hydrochloride] |  |  | -5 mmHg | -16 mmHg | -21 mmHg | -5 mmHg | +5 mmHg | 20 mmHg | 17 mmHg | 17 mmHg | 16 mmHg | 16 mmHg | 16 mmHg | 18 mmHg | 18 mmHg |  | * (Did not protect 3 of 5 mice and thus was not tested further.)
